In experiment [1] the test system is H23 cells. The experiment can be described thus: Zebrafish larvae H23 xenotransplant. The experiment is classed as in vivo. To be noted: sotorasib 12 μM, adagrasib 2 μM, carfilzomib 1.6 mM as printed; Day 3.
Experiment [2] relates to SW1573. The experiment in a line: Drug combination synergy assay (inhibition matrix). To be noted: Homo sapiens. It counts as cell-based. On the procedure: The synergy finder codes were used to determine the synergy between drugs for 48 possible combinations. The codes were run using the R-platform and synergy was calculated and represented as the synergy landscape.
Drug Combination Synergy Assay: For combination index (CI) calculation, SW1573 and H23 incured cell lines were seeded in 96-well plate with 5000 cells per well. Three biological replicates (three 96-well plates for each drug combination) were used. […] The drugs were used in linear dilution series with dilution factor of 2. […] Further, R package called SynergyFinder (He et al., 2018) was used to find the nature of drug-drug interaction (i.e. if they work in synergy or antagonistically or non-interactively). For this purpose, the drug response matrix is supplied to the mentioned package, which then uses several models namely Highest Single Agent (Berenbaum, 1989), Loewe additivity (Loewe, 1953), Bliss independence (Bliss, 1939) and Zero Interaction Potency (Yadav et al., 2015) to quantify the degree of drug synergy. The dose response matrix was used to calculate individual CI values for IC30, IC50 and IC70 drug treatments. The output values were used to plot isobolograms using the following formula. CI=IC50 (A) pair IC50 (A)+IC50 (B) pair IC50 (B)

Experiment [3] relates to cisplatin-refractory KRAS mutant NSCLC cells. The experiment can be described thus: Sensitization of cisplatin-refractory cells. It counts as cell-based. To be noted: read-out: IC50 to sensitize cisplatin-refractory KRAS mutant NSCLC cells. On the procedure: Furthermore, treating NSCLC cell lines that express high levels of ITGB4 and PXN (H358 and H2009) were treated with carfilzomib, H358 cells carrying the KRAS G12C mutation were more sensitive than H2009 cells harboring the G12A mutation. […] Taken together, these observations indicate that treating patients with carfilzomib in addition to targeting mutant KRAS will be more efficacious than carfilzomib treatment alone.

Experiment [4] concerns SW1573 cells. The experiment can be described thus: Zebrafish larvae SW1573 xenotransplant. The experiment is classed as in vivo. On the procedure:
The inventors microinjected SW1573 cells into the perivitelline space of 48 hour post-fertilization (hpf) zebrafish larvae.

Experiment [5] concerns SW1573. The experiment in a line: Cell proliferation assay, 2D (IncuCyte live cell imaging). It counts as cell-based. To be noted: SW1573. On the procedure: The cells were seeded at density of 10000 cells/well 12 hours prior to the experiment. Once the cells attached to the plate the media was removed and the drugs were added to the cells. […] Cell proliferation was observed using the IncuCyte Live Imaging System for 72 hrs.
Knockdown of ITGB4 (Cat #SR302473C) at the mRNA level in the SW1573 cells was done using siRNAs purchased from OriGene Technologies (Rockville, Md., USA). JetPRIME transfection reagent (Polyplus Transfection, Illkirch, France) was used to transfect the siRNAs according to the manufacturer's protocol. Cells were seeded in 6-well plates (200,000 cells/well) and allowed to adhere overnight. Next day, 10 nM siRNA was transfected with 4 μl jetPRIME reagent in complete growth medium for each well. Next day cells were trypsinized, counted and re-plated on the 96 well plate for cell proliferation and drug assay. […] Cell growth medium was changed the next day and expression was detected 72 h post-transfection by immunoblotting.
(§1) The cells grown in 2D cultures were treated with various concentrations of the drug, and the effect on cell proliferation was determined in real time using the live cell proliferation assay (IncuCyte, Essen Bioscience, Inc.) as described in the methods.
(§2) Cell proliferation and apoptosis assay: Cell proliferation assays were performed using cell lines stably transfected with NucLight Red Lentivirus (Essen BioScience) to accurately visualize and count the nucleus of a single cell. Cells were seeded on a 96-well plate and allowed to adhere for 24 h. Test compounds were added at indicated concentrations. Caspase-3/7 Green Apoptosis Reagent (Essen BioScience) was also added as a green fluorescent indicator of caspase3/7-mediated apoptotic activity. To monitor cell proliferation and apoptosis over time, the plate was placed in the IncuCyte S3 Live Cell Imaging System (Essen BioScience) and images were acquired every 2 hours. Data analysis was generated by the IncuCyte software using a red fluorescence mask to accurately count each cell nucleus and a green fluorescence mask to measure apoptosis over time. 3D spheroid assay 3D spheroid experiments were performed using cell lines stably transfected with NucLight Red Lentivirus (Essen BioScience) to visualize red fluorescence as an indicator of cell viability. Cells were seeded on a 96-well ultra-low attachment plate and allowed to form spheroids overnight. Drug treatment was added as indicated along with Cytotox Green Reagent (Essen BioScience), used as a green fluorescence indicator of cell death due to loss of cell membrane integrity. To monitor cell proliferation and apoptosis over time, the plate was placed in the IncuCyte S3 Live Cell Imaging System (Essen BioScience) and images were acquired every 2 hours. Data analysis was generated by the IncuCyte software using a red fluorescence mask to accurately measure intensity and area of red fluorescence, indicating spheroid viability and a green fluorescence mask, indicating cell death. Cell cycle analysis.

In experiment [6] the test system is SW1573 NSCLC cells. The experiment in a line: Mouse SW1573 xenograft. The experiment is classed as in vivo, Athymic nude nu/nu mice. On the procedure:
Mouse xenograft studies. Athymic nude nu/nu mice were obtained from Charles River, Wilmington, Mass., and were acclimated for a week before beginning the experiment. All animal experiments were carried out in accordance with a protocol approved by the Institutional Animal Care and Use Committee (IACUC #16004). […] All 40 animals were injected with 1×10^6 SW1573 cells suspensions in 100 μl of PBS, subcutaneously into one flank of each mouse. At the same time, animals were randomized into treatment groups. Treatment was started 12 days after the SW1573 NSCLC cells implantation to see palpable tumor growth. Treatments were given to mice via oral gavage twice a week for 8 weeks. Animals were examined daily for signs of tumor growth. Tumors were measured in two dimensions using calipers and body weights were recorded. Photographs of animals were taken at day 1, day 7, day 14, day 21, day 28, day 35, day 42, day 49, and day 56 after treatment. Photographs of tumors were also taken at day 56 after treatment. At the end of the study, the mice were euthanized by CO2 asphyxiation followed by cervical dislocation. The tumor weights were compared between groups using an unpaired Student's t-test. A portion of the tumor was fixed in 10% buffered formaldehyde solution and paraffin-embedded for immuno-staining or was snap-frozen in liquid nitrogen for further molecular analysis such as western blotting.

For experiment [7], the system named is H358 spheroids. The experiment can be described thus: 3D spheroid assay. The experiment is classed as cell-based. To be noted: H358. On the procedure: (§3) The activation of apoptosis is marked with the increase in green fluorescence intensity.
(§4) To determine the sensitivities of the same cells in 3D, mKate expressing cells were used to generate spheroids. Spheroids were monitored in real time using the IncuCyte live cell imaging system (FIG. 1B).
as §2

The test system of experiment [8] is SW1573 spheroids. The experiment can be described thus: 3D spheroid assay. The experiment is classed as cell-based. To be noted: SW1573. On the procedure:
as §3, §4, §2

Experiment [9] has as its system H23 spheroids. The experiment can be described thus: 3D spheroid assay. It counts as cell-based. To be noted: H23. On the procedure:
as §3, §4, §2

Experiment [10] has as its system H358. The experiment in a line: Cell proliferation assay, 2D (IncuCyte live cell imaging). The experiment is classed as cell-based. To be noted: H358. On the procedure: as §1, §2
Experiment [11] relates to H23. The experiment is described as above. The experiment is classed as cell-based. To be noted: H23. On the procedure: as §1, §2

Molecules are shown by their SMILES. Read-outs that look alike come from different tables or passages of the source.

By IC50 is commonly meant the concentration that inhibits the measured activity by half. Consider `CC(C)C[C@H](NC(=O)[C@H](CCc1ccccc1)NC(=O)CN1CCOCC1)C(=O)N[C@@H](Cc1ccccc1)C(=O)N[C@@H](CC(C)C)C(=O)[C@@]1(C)CO1` [carfilzomib], for which the “reduction of tumor growth (median)” value in [1] is given as about 82%. For the same compound, the inhibition at 0.01 µM in experiment [2] (carfilzomib 10 nM, 72 hours, read-out: inhibition of growth) was found to be 60%. In addition, the IC50 in experiment [3] was 0.0008 µM. In [4], the “most effective dose, drug alone (obliterates SW1573 cells)” value is 1.6 µM. The “effect on cell growth” value in experiment [5] (20 nM) is “slows cell growth”. The “tumor weight compared to control group” value in [6] (end of study (day 56)) is “significant reduction in tumor weight”. In addition, the “reduction in tumor area” value in experiment [6] (sotorasib 10 mg/kg, adagrasib 10 mg/kg, carfilzomib 2 mg/kg, oral gavage twice a week, day 56) is recorded as about 56%.

In the case of `C=C(F)C(=O)N1CCN(c2nc(OC[C@@H]3CCCN3C)nc3c2CCN(c2cccc4cccc(Cl)c24)C3)C[C@@H]1CC#N` [adagrasib], the “spheroids inviable (red mean intensity, last time point)” value in experiment [7] (0.6 μM) worked out at 80%; in experiment [9] (0.6 μM), 40%. Further, the “better viability compared to untreated spheroids” value in experiment [8] (0.6 μM) was 50%.

With `C[C@@H]1C[C@H](C)CN(S(=O)(=O)c2ccc3c(c2)C(=NO)c2cc(S(=O)(=O)N4C[C@H](C)C[C@H](C)C4)ccc2C3=NO)C1` [tegatrabetan], in experiment [2] (tegatrabetan 10 nM, read-out: inhibition of cell growth), the inhibition at 0.01 µM was 10%.

With `C=CC(=O)N1CCN(c2ncnc3c(F)c(-c4c(O)cccc4F)c(Cl)cc23)CC1` [ARS1620, (S)-1-(4-(6-chloro-8-fluoro-7-(2-fluoro-6-hydroxyphenyl)quinazolin-4-yl)piperazin-1-yl)prop-2-en-1-one], the entries for the “reduction of spheroid mean red intensity” value in experiment [7] (5 μM), in experiment [8] (5 μM) and in [9] (5 μM) were 80%, 40% and 50%, respectively. Also, the “reduction in spheroid growth” value in experiment [7] (10 μM) and in experiment [9] (10 μM) was 70% throughout. Besides, the inhibition at 10 µM is about 25% in experiment [8] (Homo sapiens, 10 μM, read-out: inhibition of spheroid area / reduction in spheroid growth); 20% in experiment [5] (Homo sapiens, 10 μM, 72 hours, read-out: inhibition of proliferation / cell growth); 80% in experiment [11] (Homo sapiens, NCI-H23, 10 μM, 72 hours, read-out: inhibition of proliferation / cell growth). Further, the IC50 in experiment [5] (Homo sapiens, 72 hours, Example 6) was over 10 µM; in [11] (Homo sapiens, NCI-H23, 72 hours, Example 6), 7.6 µM. For the same compound, the “inhibition of cell growth” value in experiment [10] (2.5, 5 or 10 μM) turned out to be 50%; in experiment [11] (at 1.2 (unit not given)), 30%. Moreover, the inhibition at 1.2 µM in [10] (Homo sapiens, NCI-H358, 1.2 μM, 72 hours, read-out: inhibition of cell growth) amounted to 40%. Also, in [11] (Homo sapiens, NCI-H23, 5 μM, read-out: inhibition of cell growth), the inhibition at 5 µM was 50%.

The values are drawn from US20230285498A1, “TREATMENTS FOR CANCERS HAVING KRAS MUTATIONS” (City of Hope, priority 2020, published 2023).
